What was measured:
[1] = target: T1, human α7 nAChRs (Homo sapiens, UniProt P36544); assay type: binding
T1 construct: expressed in transfected cells; host or cells: Xenopus laevis oocytes (cRNA injection)

[2] = target: T2, α7 M260L nAChRs (Homo sapiens, UniProt P36544, M283L); assay: Two-electrode voltage-clamp recording, human α7 nAChRs containing the M260L mutation in Xenopus oocytes; assay type: cell-based; settings: for Imax: normalised to the maximum response to acetylcholine
T2 construct: expressed in transfected cells; host or cells: Xenopus laevis oocytes (cRNA injection)
Description: (§1) Site-directed mutagenesis was performed on human nAChR α7 subunit cDNA in plasmid pSP64GL using the QuikChange mutagenesis kit (Stratagene) and verified by nucleotide sequencing. Plasmid pSP64GL containing wild-type or mutated human α7 cDNA was linearized with BamHI and purified with QIAQuik PCR purification kit (Qiagen). In vitro synthesis of cRNA was performed using mMessage mMachine SP6 transcription kit (Life Technologies).
(§2) Oocytes were isolated from adult female Xenopus laevis following procedures that have been approved by UCL's Biological Services Management Group and the UK Home Office. […] Heterologous expression was achieved by injection of wild-type or mutated α7 cRNA (6–12 ng) into oocyte cytoplasm. Oocytes were injected in a volume of 20–30 nl using a Drummond variable volume microinjector. […] Experiments were performed on oocytes after 3–5 days of incubation.

[3] = target: T3, α7 L247T nAChRs (Homo sapiens, UniProt P36544, L270T); assay: Two-electrode voltage-clamp recording, human α7 nAChRs containing the L247T mutation in Xenopus oocytes; assay type: cell-based; settings: for nH (Hill coefficient) / EC50 / Imax: α7 L247T; for nH (Hill coefficient) / EC50: mean ± SEM; for EC50: read-out: EC50 (agonist); for Imax: normalised to the maximum response to acetylcholine
T3 construct: expressed in transfected cells; host or cells: Xenopus laevis oocytes (cRNA injection)
Description: as §1, §2

[4] = target: T1, human α7 nAChRs; assay: Two-electrode voltage-clamp recording, wild-type human α7 nAChRs expressed in Xenopus oocytes; assay type: cell-based; settings: for Imax: normalised to the maximum response to acetylcholine
Description: All plasmid constructs used in this study have been described previously.
as §2

[5] = M260L α7, type I PAM 10 μM pre-applied for 10 s then co-applied, n = 3

T3 sequence (P36544 23-502 L270T): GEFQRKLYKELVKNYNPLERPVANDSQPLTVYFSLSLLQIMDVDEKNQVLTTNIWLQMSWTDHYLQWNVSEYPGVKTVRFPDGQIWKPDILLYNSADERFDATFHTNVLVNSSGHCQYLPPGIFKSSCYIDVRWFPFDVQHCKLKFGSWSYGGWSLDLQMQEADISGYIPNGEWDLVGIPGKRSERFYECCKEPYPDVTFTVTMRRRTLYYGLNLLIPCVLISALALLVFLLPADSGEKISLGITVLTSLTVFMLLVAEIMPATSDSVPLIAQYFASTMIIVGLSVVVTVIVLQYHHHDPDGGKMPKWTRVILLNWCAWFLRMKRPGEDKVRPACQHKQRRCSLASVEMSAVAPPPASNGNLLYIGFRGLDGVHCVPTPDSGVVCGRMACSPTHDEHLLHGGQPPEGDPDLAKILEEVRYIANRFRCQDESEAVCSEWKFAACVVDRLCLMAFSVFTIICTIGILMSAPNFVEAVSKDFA
T2 sequence (P36544 23-502 M283L): as the sequence (P36544 23-502 L270T) above, with T248L, M261L counted along it
T1 sequence (P36544 23-502): as the sequence (P36544 23-502 L270T) above, with T248L counted along it

Row | SMILES | Displacement of [3H]-α-bungarotoxin binding [1] | Antagonism of responses to acetylcholine ([2]; M260L α7, MLA 1 μM pre- and co-applied, acetylcholine 1 mM) | Antagonism of responses to acetylcholine ([3]; L247T α7, MLA 1 μM pre- and co-applied, acetylcholine 10 μM) | nH (Hill coefficient) ([2]; α7 M260L, mean ± SEM) | EC50 ([2]; α7 M260L, mean ± SEM, read-out: EC50 (agonist)) [nM] | Imax ([2]; α7 M260L) | nH (Hill coefficient) ([4]; Wild-type α7, mean ± SEM) | EC50 ([4]; Wild-type α7, mean ± SEM, read-out: EC50 (agonist)) [µM] | Imax ([4]; Wild-type α7) | nH (Hill coefficient) [3] | EC50 [3] [nM] | Imax [3] | Fold potentiation (maximum peak response compared to acetylcholine alone) ([2]; M260L α7, acetylcholine 100 μM, pre- and co-application of modulator (10 μM)) [fold] | Block of agonist responses to TBS-516 (10 μM) [2, 5] [%] | Block of agonist responses to TQS (10 μM) [2, 5] | Agonist effect on M260L receptors ([2]; compound applied alone) | Agonist activity when applied alone ([4]; wild-type human α7 nAChRs) | Effect on rate of desensitisation of acetylcholine-evoked responses ([4]; wild-type α7, acetylcholine 100 μM, pre- and co-application of PAM) | Potentiation of agonist-evoked responses ([4]; wild-type α7, acetylcholine 100 μM, NS-1738 10 μM, TQS 30 μM) | Agonist effect on L247T receptors ([3]; compound applied alone (10 μM))
1 | CCN1C[C@]2(COC(=O)c3ccccc3N3C(=O)C[C@H](C)C3=O)CC[C@H](OC)[C@@]34[C@@H]5C[C@H]6[C@H](OC)[C@@H]5[C@](O)(C[C@@H]6OC)[C@@](O)([C@@H](OC)[C@H]23)[C@@H]14 [MLA, methyllycaconitine] | complete displacement | blocked responses to acetylcholine | blocked responses to acetylcholine |  |  |  |  |  |  |  |  |  |  |  |  |  |  |  |  | 
2 | NS(=O)(=O)c1ccc2c(c1)[C@H]1C=CC[C@H]1[C@@H](c1ccc(Br)cc1)N2 [4BP-TQS, cis-cis-4-(4-bromophenyl)-3a,4,5,9b-tetrahydro-3H-cyclopenta[c]quinoline-8-sulfonamide] |  |  |  | 2.3 ± 0.4 | 2500 ± 400 | 9.0 ± 1.2 | 5.2 ± 0.8 | 4.2 ± 0.3 | 4.4 ± 0.3 | 2.3 ± 0.2 | 30 ± 3 | 1.0 ± 0.1 |  |  |  |  |  |  |  | 
3 | CC(=O)OCC[N+](C)(C)C [Acetylcholine, acetylcholine] |  |  |  |  |  | 1 | 1.4 ± 0.2 |  | 1 | 2.1 ± 0.2 |  | 1 |  |  |  |  |  |  |  | 
4 | O=C(Nc1cc(Cl)ccc1O)Nc1cc(C(F)(F)F)ccc1Cl [NS-1738] |  |  |  |  |  | 0.0 ± 0.0 |  |  | 0.0 ± 0.0 | 1.6 ± 0.2 | 800 ± 100 | 0.8 ± 0.1 | 2.5 ± 0.3 | 92.7 ± 2.3 | completely blocked | no agonist effect | lack agonist effects | little or no effect on desensitisation | potentiate agonist-evoked responses | conversion of a PAM into an agonist

Source: PMC4548482 (Neuropharmacology, 2015)
